In PubChem BioAssay (NCI):
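Protocol summary: plate cells (96-well), add compound at 5 concentrations, incubate 48 h, interpolate endpoints linearly. Here, GI50 denotes the concentration required for 50% inhibition of growth. At the TGI there is no net growth.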

Experiments:
Assay in all cases: DTP human tumour cell line panel, 48 h
[1] = tested on: A498 renal
[2] = tested on: A549 NSCLC
[3] = tested on: ACHN renal
[4] = tested on: BT-549 breast
[5] = tested on: CAKI-1 renal
[6] = tested on: CCRF-CEM leukemia
[7] = tested on: COLO 205 colon
[8] = tested on: HCT-15 colon
[9] = tested on: HOP-62 NSCLC
[10] = tested on: HOP-92 NSCLC
[11] = tested on: IGROV1 ovarian
[12] = tested on: K-562 leukemia
[13] = tested on: KM12 colon
[14] = tested on: LOX IMVI melanoma
[15] = tested on: M14 melanoma
[16] = tested on: MALME-3M melanoma
[17] = tested on: MCF7 breast
[18] = tested on: NCI-H226 lung
[19] = tested on: NCI-H23 lung
[20] = tested on: RPMI-8226 leukemia
[21] = tested on: RXF 393 renal
[22] = tested on: SF-268 CNS
[23] = tested on: SF-295 CNS
[24] = tested on: SF-539 CNS
[25] = tested on: SK-MEL-5 melanoma
[26] = tested on: SK-OV-3 ovarian
[27] = tested on: SN12C renal
[28] = tested on: SR leukemia
[29] = tested on: SW-620 colon
[30] = tested on: TK-10 renal
[31] = tested on: U251 CNS
[32] = tested on: UACC-257 melanoma
[33] = tested on: UACC-62 melanoma
[34] = tested on: UO-31 renal
[35] = tested on: 786-0 renal
[36] = tested on: DU-145 prostate
[37] = tested on: EKVX NSCLC
[38] = tested on: HCC-2998 colon
[39] = tested on: HCT-116 colon
[40] = tested on: HL-60(TB) leukemia
[41] = tested on: HS 578T breast
[42] = tested on: HT29 colon
[43] = tested on: MDA-MB-231 breast
[44] = tested on: MDA-MB-435
[45] = tested on: MOLT-4 leukemia
[46] = tested on: NCI-H522 lung
[47] = tested on: NCI/ADR-RES ovarian
[48] = tested on: OVCAR-3 ovarian
[49] = tested on: OVCAR-5 ovarian
[50] = tested on: OVCAR-8 ovarian
[51] = tested on: PC-3 prostate
[52] = tested on: SK-MEL-2 melanoma
[53] = tested on: SK-MEL-28 melanoma
[54] = tested on: SNB-19 CNS
[55] = tested on: SNB-75 CNS
[56] = tested on: T-47D breast
[57] = tested on: NCI-H460 lung
[58] = tested on: OVCAR-4 ovarian

## COc1cc([C@@H]2c3cc4c(cc3C[C@@H]3COC(=O)C32)OCO4)cc(OC)c1O (stereo partly specified)
[1]
  TGI: > 100 µM
[2]
  TGI: > 93.4 µM
[3]
  TGI: 23.5 µM
[4]
  TGI: > 100 µM
[5]
  TGI: 0.823 µM
[6]
  TGI: 0.0526 µM
[7]
  TGI: 0.0933 µM
[8]
  TGI: > 100 µM
[9]
  TGI: 24.3 µM
[10]
  TGI: 34.9 µM
[11]
  TGI: 0.0791 µM
[12]
  TGI: > 100 µM
[13]
  TGI: > 100 µM
[14]
  TGI: 15.7 µM
[15]
  TGI: > 100 µM
[16]
  TGI: 0.07 µM
[17]
  TGI: 0.071 µM
[18]
  TGI: > 59.9 µM
[19]
  TGI: > 100 µM
[20]
  TGI: 0.137 µM
[21]
  TGI: 0.0635 µM
[22]
  TGI: > 32.6 µM
[23]
  TGI: 0.0585 µM
[24]
  TGI: 0.0443 µM
[25]
  TGI: 1.04 µM
[26]
  TGI: 2.47 µM
[27]
  TGI: > 77.4 µM
[28]
  TGI: 0.0503 µM
[29]
  TGI: > 100 µM
[30]
  TGI: > 100 µM
[31]
  TGI: > 100 µM
[32]
  TGI: > 100 µM
[33]
  TGI: > 52.1 µM
[34]
  TGI: > 100 µM

## NC(=N\N=C/c1cccc([N+](=O)[O-])c1)/C(N)=N\N=C/c1cccc([N+](=O)[O-])c1
[35]
  GI50: > 100 µM
  TGI: > 100 µM
[1]
  GI50: > 100 µM
  TGI: > 100 µM
[3]
  GI50: > 100 µM
  TGI: > 100 µM
[5]
  GI50: > 100 µM
  TGI: > 100 µM
[6]
  GI50: > 100 µM
  TGI: > 100 µM
[7]
  GI50: > 100 µM
  TGI: > 100 µM
[36]
  GI50: > 100 µM
  TGI: > 100 µM
[37]
  GI50: > 100 µM
  TGI: > 100 µM
[38]
  GI50: > 100 µM
  TGI: > 100 µM
[39]
  GI50: > 100 µM
  TGI: > 100 µM
[8]
  GI50: > 100 µM
  TGI: > 100 µM
[40]
  GI50: > 100 µM
  TGI: > 100 µM
[9]
  GI50: > 100 µM
  TGI: > 100 µM
[10]
  GI50: > 100 µM
  TGI: > 100 µM
[41]
  GI50: > 100 µM
  TGI: > 100 µM
[42]
  GI50: > 100 µM
  TGI: > 100 µM
[11]
  GI50: > 100 µM
  TGI: > 100 µM
[12]
  GI50: > 100 µM
  TGI: > 100 µM
[13]
  GI50: > 100 µM
  TGI: > 100 µM
[14]
  GI50: > 100 µM
  TGI: > 100 µM
[15]
  GI50: > 100 µM
  TGI: > 100 µM
[16]
  GI50: > 100 µM
  TGI: > 100 µM
[17]
  GI50: > 100 µM
  TGI: > 100 µM
[43]
  GI50: > 100 µM
  TGI: > 100 µM
[44]
  GI50: > 100 µM
  TGI: > 100 µM
[45]
  GI50: > 100 µM
  TGI: > 100 µM
[18]
  GI50: > 100 µM
  TGI: > 100 µM
[19]
  GI50: > 100 µM
  TGI: > 100 µM
[46]
  GI50: > 100 µM
  TGI: > 100 µM
[47]
  GI50: > 100 µM
  TGI: > 100 µM
[48]
  GI50: > 100 µM
  TGI: > 100 µM
[49]
  GI50: > 100 µM
  TGI: > 100 µM
[50]
  GI50: > 100 µM
  TGI: > 100 µM
[51]
  GI50: > 100 µM
  TGI: > 100 µM
[20]
  GI50: > 100 µM
  TGI: > 100 µM
[21]
  GI50: > 100 µM
  TGI: > 100 µM
[22]
  GI50: > 100 µM
  TGI: > 100 µM
[23]
  GI50: > 100 µM
  TGI: > 100 µM
[24]
  GI50: > 100 µM
  TGI: > 100 µM
[52]
  GI50: > 100 µM
  TGI: > 100 µM
[53]
  GI50: > 100 µM
  TGI: > 100 µM
[25]
  GI50: > 100 µM
  TGI: > 100 µM
[26]
  GI50: > 100 µM
  TGI: > 100 µM
[27]
  GI50: > 100 µM
  TGI: > 100 µM
[54]
  GI50: > 100 µM
  TGI: > 100 µM
[55]
  GI50: > 100 µM
  TGI: > 100 µM
[28]
  GI50: > 100 µM
  TGI: > 100 µM
[29]
  GI50: > 100 µM
  TGI: > 100 µM
[56]
  GI50: > 100 µM
  TGI: > 100 µM
[30]
  GI50: > 100 µM
  TGI: > 100 µM
[31]
  GI50: > 100 µM
  TGI: > 100 µM
[32]
  GI50: > 100 µM
  TGI: > 100 µM
[33]
  GI50: > 100 µM
  TGI: > 100 µM
[34]
  GI50: > 100 µM
  TGI: > 100 µM

## COc1ccc(-c2ccc(/C=N/n3c(COc4ccc(Cl)cc4Cl)nn(CN4CCN(C)CC4)c3=S)o2)c([N+](=O)[O-])c1
[35]
  GI50: 21.4 µM
  TGI: > 100 µM
[1]
  GI50: 2.28 µM
  TGI: 5.1 µM
[2]
  GI50: 20.8 µM
  TGI: > 100 µM
[3]
  GI50: 21.9 µM
  TGI: 55.7 µM
[5]
  GI50: 16.8 µM
  TGI: 37.3 µM
[6]
  GI50: 14.3 µM
  TGI: 47 µM
[7]
  GI50: 29.3 µM
  TGI: > 100 µM
[36]
  GI50: 17.1 µM
  TGI: > 100 µM
[39]
  GI50: 16 µM
  TGI: 29.5 µM
[8]
  GI50: 17 µM
  TGI: 35.4 µM
[40]
  GI50: 16.3 µM
  TGI: 43.9 µM
[9]
  GI50: 29.6 µM
  TGI: 79.5 µM
[41]
  GI50: 37.8 µM
  TGI: > 100 µM
[42]
  GI50: 41.2 µM
  TGI: > 100 µM
[11]
  GI50: 45 µM
  TGI: > 100 µM
[12]
  GI50: 22.2 µM
  TGI: > 100 µM
[13]
  GI50: 15.1 µM
  TGI: 36.5 µM
[14]
  GI50: 11.4 µM
  TGI: 25.2 µM
[15]
  GI50: 19.8 µM
  TGI: 53.9 µM
[17]
  GI50: 10 µM
  TGI: 29.8 µM
[43]
  GI50: 28.9 µM
  TGI: > 100 µM
[44]
  GI50: 15.9 µM
  TGI: 37.5 µM
[18]
  GI50: 12.5 µM
  TGI: 31 µM
[19]
  GI50: 13.3 µM
  TGI: 30.6 µM
[57]
  GI50: 15 µM
  TGI: 45.1 µM
[46]
  GI50: 44.5 µM
  TGI: > 100 µM
[47]
  GI50: 18.1 µM
  TGI: 45.5 µM
[48]
  GI50: 7.51 µM
  TGI: 25 µM
[58]
  GI50: 59.7 µM
  TGI: > 100 µM
[49]
  GI50: 24.2 µM
  TGI: 97.1 µM
[50]
  GI50: 18.9 µM
  TGI: 53.5 µM
[51]
  GI50: 17.6 µM
  TGI: 76.8 µM
[20]
  GI50: 9.37 µM
  TGI: 50 µM
[21]
  GI50: 6.86 µM
  TGI: 32.9 µM
[22]
  GI50: 24.8 µM
  TGI: > 100 µM
[23]
  GI50: 16.8 µM
  TGI: 37.5 µM
[53]
  GI50: 47.8 µM
  TGI: > 100 µM
[26]
  GI50: 30.8 µM
  TGI: 80.7 µM
[27]
  GI50: 17.8 µM
  TGI: 41.5 µM
[54]
  GI50: 35.2 µM
  TGI: > 100 µM
[55]
  GI50: 67.5 µM
  TGI: > 100 µM
[28]
  GI50: 31.1 µM
  TGI: 96.1 µM
[56]
  GI50: 11.7 µM
  TGI: 53.2 µM
[30]
  GI50: 2.43 µM
  TGI: 9.67 µM
[31]
  GI50: 16.9 µM
  TGI: 42.8 µM
[32]
  GI50: 23.5 µM
  TGI: 59.6 µM
[34]
  GI50: 26.7 µM
  TGI: > 100 µM
